Test results published in patent publication US7074802B2, “Pyrimidine derivatives as selective inhibitors of cox-2” (Glaxo Group Limited, priority 2001, dated 2006).

What was measured:
[1] = biological target: COX-1 (Homo sapiens, UniProt P23219); assay: Microsomal assay, inhibition of COX-1; type: biochemical
Procedure: (§1) Inhibitory activity against microsomal h-COX2 was assessed against a microsomal preparation from baculovirus infected SF9 cells. An aliquot of microsomal preparation was thawed slowly on ice and a 1/40,000 dilution prepared from it into the assay buffer (sterile water, degassed with argon containing 100 mM HEPES (pH 7.4), 10 mM EDTA (pH7.4), 1 mM phenol, 1 mM reduced glutathione, 20 mg/ml gelatin and 0.001 mM Hematin). Once diluted the enzyme solution was then sonicated for 5 seconds (Branson sonicator, setting 4, 1 cm tip) to ensure a homogeneous suspension. 155 μl enzyme solution was then added to each well of a 96-well microtitre plate containing either 5 μl test compound (40× required test concentration) or 5 μl DMSO for controls. Plates were then mixed and incubated at room temperature for 1 hour. Following the incubation period, 40 μl of 0.5 μM arachidonic acid was added to each well to give a final concentration of 0.1 μM. Plates were then mixed and incubated for exactly 10 minutes (room temperature) prior to addition of 25 μl 1M HCl (hydrochloric acid) to each well to stop the reaction. 25 μl of 1M NaOH (sodium hydroxide) was then added to each well to neutralise the solution prior to determination of PGE2 levels by enzyme immunoassay (EIA).
(§2) The following IC50 values for inhibition of COX-2 and COX-1 were obtained from the microsomal assay for compounds of the invention: […]

[2] = biological target: T1, microsomal h-COX2 (Homo sapiens, UniProt P35354); assay: Microsomal assay, inhibition of COX-2; type: biochemical; details: microsomal preparation from baculovirus infected SF9 cells; PGE2 by EIA
T1 construct: made in house; host or cells: baculovirus infected SF9 cells (microsomal preparation)
T1 sequence (P35354 18-604): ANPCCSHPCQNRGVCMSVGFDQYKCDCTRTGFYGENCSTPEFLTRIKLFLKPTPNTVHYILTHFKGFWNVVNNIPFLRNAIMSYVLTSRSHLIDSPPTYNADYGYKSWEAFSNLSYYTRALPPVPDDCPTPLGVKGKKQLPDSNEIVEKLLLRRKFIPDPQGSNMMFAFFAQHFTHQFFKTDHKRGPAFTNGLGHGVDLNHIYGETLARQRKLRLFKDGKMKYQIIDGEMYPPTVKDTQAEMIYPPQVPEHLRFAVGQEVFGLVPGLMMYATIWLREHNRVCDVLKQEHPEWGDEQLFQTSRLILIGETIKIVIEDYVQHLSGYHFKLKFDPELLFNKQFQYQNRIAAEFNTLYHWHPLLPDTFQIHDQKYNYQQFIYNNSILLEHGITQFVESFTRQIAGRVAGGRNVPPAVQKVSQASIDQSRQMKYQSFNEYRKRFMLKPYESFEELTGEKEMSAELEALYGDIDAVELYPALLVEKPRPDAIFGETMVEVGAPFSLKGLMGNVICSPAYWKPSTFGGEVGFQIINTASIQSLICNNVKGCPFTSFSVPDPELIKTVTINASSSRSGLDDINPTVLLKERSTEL
Procedure: as §1, §2

Sequence of COX-1 (P23219 24-599): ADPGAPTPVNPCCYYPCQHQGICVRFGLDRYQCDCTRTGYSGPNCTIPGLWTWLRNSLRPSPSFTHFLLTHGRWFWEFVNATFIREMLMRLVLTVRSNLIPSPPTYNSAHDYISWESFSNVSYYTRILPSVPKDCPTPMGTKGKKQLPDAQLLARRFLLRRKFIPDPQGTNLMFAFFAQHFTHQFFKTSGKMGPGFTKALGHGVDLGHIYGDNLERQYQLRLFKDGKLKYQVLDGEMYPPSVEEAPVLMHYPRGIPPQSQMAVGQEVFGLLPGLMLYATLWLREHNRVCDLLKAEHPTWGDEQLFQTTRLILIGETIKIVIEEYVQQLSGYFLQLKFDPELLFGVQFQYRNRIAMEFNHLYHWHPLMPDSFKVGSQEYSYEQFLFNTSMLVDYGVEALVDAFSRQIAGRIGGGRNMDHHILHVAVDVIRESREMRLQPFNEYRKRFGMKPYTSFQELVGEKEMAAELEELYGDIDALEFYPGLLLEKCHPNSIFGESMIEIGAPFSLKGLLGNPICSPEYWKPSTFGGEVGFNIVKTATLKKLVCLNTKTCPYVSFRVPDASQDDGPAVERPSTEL

| Structure (SMILES) | IC50 [1] | IC50 [2] |
| --- | --- | --- |
| CCCCNc1nc(-c2ccc(S(C)(=O)=O)cc2)cc(C(F)F)n1 [Example 2, N-butyl-4-(difluoromethyl)-6-[4-(methylsulfonyl)phenyl]pyrimidin-2-amine] | > 94000 nM | 17 nM |
| CCCCNc1nc(CF)cc(-c2ccc(S(C)(=O)=O)cc2)n1 [Example 1, N-Butyl-4-(fluoromethyl)-6-[4-(methylsulfonyl)phenyl]pyrimidin-2-amine] | > 10000 nM | 761 nM |
